This note sets out measurements from BindingDB's records for doi:10.1016/s0960-894x(02)00954-x (A.P.S. University, 2003).

Structures are written as SMILES.

This assay concerns the target Carbonic anhydrase 2 (Homo sapiens, UniProt P00918). Put plainly: Inhibition of human carbonic anhydrase II (CAII).

With `NS(=O)(=O)c1cccc(N2C(=O)c3cccnc3C2=O)c1`, the Ki (usually a dissociation constant, usually derived from enzyme kinetics or from competition with a known ligand) is 400 nM.
